Results taken from ChEMBL document CHEMBL5370561, “Characterization of a Malabaricane-Type Triterpene Synthase from Astragalus membranaceus and Enzymatic Synthesis of Astramalabaricosides” (J Nat Prod, 2023).

Columns and labels:
HepG2 [1] = experiment: Hepatoprotective activity against APAP-induced cell injury in human HepG2 cells assessed as cell survival rate at 10 uM incubated for 24 hrs by MTT assay relative to control; format: functional
Influenza A virus = experiment: Antiviral activity against Influenza A virus infected in HEK293T-GlUC cells assessed as inhibition of viral replication at 10 uM preincubated with cells for 2 hrs followed by viral infection and measured after 24 hrs relative to control; format: functional; conditions: HEK-293T, time 26 hrs
HCT-116 = experiment: Cytotoxicity against human HCT-116 cells assessed as reduction in cell growth measured after 72 hrs by MTT assay; format: functional, cell-based; conditions: HCT-116, 72 h
RAW264.7 = experiment: Antiinflammatory activity in LPS-induced mouse RAW264.7 cells assessed as inhibition of TNF-alpha production at 10 uM incubated for 1 hr followed by LPS-stimulation and measured after 24 hrs by ELISA analysis relative to control; format: functional; conditions: time 25 hrs
PANC-1 = experiment: Cytotoxicity against human PANC-1 cells assessed as reduction in cell growth measured after 72 hrs by MTT assay; format: functional, cell-based; conditions: PANC-1, 72 h
HepG2 [2] = experiment: Cytotoxicity against human HepG2 cells assessed as reduction in cell growth measured after 72 hrs by MTT assay; format: functional, cell-based; conditions: HepG2, 72 h
PC-9 = experiment: Cytotoxicity against human PC-9 cells assessed as reduction in cell growth measured after 72 hrs by MTT assay; format: functional, cell-based; conditions: PC-9, 72 h
BGC-823 = experiment: Cytotoxicity against human BGC-823 cells assessed as reduction in cell growth measured after 72 hrs by MTT assay; format: functional, cell-based; conditions: BGC-823, 72 h

`N[C@@H](CCC(=O)N[C@@H](CS)C(=O)NCC(=O)O)C(=O)O` [GLUTATHIONE] was tested, and the Activity (HepG2 [1]) was 60%.
Work on `NC(=O)c1ncn([C@@H]2O[C@H](CO)[C@@H](O)[C@H]2O)n1` [RIBAVIRIN] yielded an inhibition at 10 µM (Influenza A virus) of 97%.
`C=C(CC/C=C(\C)CCC=C(C)C)[C@@H]1CC[C@H]2[C@@]1(C)CC[C@H]1C(C)(C)[C@@H](O)CC[C@]21C` was tested, and the IC50 (HCT-116) was > 50 µM, the inhibition at 10 µM (Influenza A virus) was 62% and the inhibition at 10 µM (RAW264.7) was 53%. The IC50 (PANC-1) was > 50 µM, the IC50 (HepG2 [2]) was > 50 µM and the Activity (HepG2 [1]) was 58%. The IC50 (PC-9) was > 50 µM and the IC50 (BGC-823) was > 50 µM.
`C=C(C)[C@@H]1CC[C@]2(C)CC[C@]3(C)[C@H](CC[C@@H]4[C@@]5(C)CC[C@H](O)C(C)(C)[C@@H]5CC[C@]43C)[C@@H]12` [LUPEOL] was tested, and the IC50 (HCT-116) was > 50 µM, the inhibition at 10 µM (Influenza A virus) was 17% and the inhibition at 10 µM (RAW264.7) was 34%. The IC50 (PANC-1) was > 50 µM, the IC50 (HepG2 [2]) was > 50 µM and the IC50 (PC-9) was > 50 µM. The IC50 (BGC-823) was > 50 µM.
`CC(C)=CCC/C(C)=C/CC[C@@](C)(O)[C@@H]1CC[C@H]2[C@@]1(C)CC[C@H]1C(C)(C)[C@@H](O[C@@H]3O[C@H](CO)[C@@H](O)[C@H](O)[C@H]3O)CC[C@]21C` gave an IC50 (HCT-116) of 28 µM, an inhibition at 10 µM (Influenza A virus) of 47% and an inhibition at 10 µM (RAW264.7) of 39%. The IC50 (PANC-1) was 22 µM, the IC50 (HepG2 [2]) was > 50 µM and the Activity (HepG2 [1]) was 55%. The IC50 (PC-9) was 49 µM and the IC50 (BGC-823) was > 50 µM.
`C[C@@H]1C[C@H]2[C@@H]3CCC4=CC(=O)C=C[C@]4(C)[C@@]3(F)[C@@H](O)C[C@]2(C)[C@@]1(O)C(=O)CO` [DEXAMETHASONE] gave an inhibition at 10 µM (RAW264.7) of 55%.
With `CC(C)=CCC/C(C)=C/CC[C@@](C)(O)[C@@H]1CC[C@H]2[C@@]1(C)CC[C@H]1C(C)(C)[C@@H](O[C@@H]3O[C@H](CO)[C@@H](O)[C@H](O)[C@H]3O[C@@H]3O[C@H](CO)[C@@H](O)[C@H](O)[C@H]3O)CC[C@]21C` the IC50 (HCT-116) was 39 µM, the inhibition at 10 µM (Influenza A virus) was 65% and the inhibition at 10 µM (RAW264.7) was 30%. The IC50 (PANC-1) was 45 µM, the IC50 (HepG2 [2]) was > 50 µM and the Activity (HepG2 [1]) was 48%. The IC50 (PC-9) was 36 µM and the IC50 (BGC-823) was 26 µM.
`CC(C)=CCC/C(C)=C/CCC(C)(O)[C@H]1CC[C@H]2[C@@]1(C)CC[C@H]1C(C)(C)[C@@H](O)CC[C@]21C` (some centres undefined) gave an IC50 (HCT-116) of 17 µM, an inhibition at 10 µM (Influenza A virus) of 71% and an inhibition at 10 µM (RAW264.7) of 34%. It also gave an IC50 (PANC-1) of 15 µM, an IC50 (HepG2 [2]) of 22 µM and an Activity (HepG2 [1]) of 47%. For the same compound, the IC50 (PC-9) was 14 µM and the IC50 (BGC-823) was 40 µM.
In the case of `CC(C)=CCC[C@@](C)(O)[C@H]1CC[C@]2(C)[C@@H]1CC[C@@H]1[C@@]3(C)CC[C@H](O)C(C)(C)[C@@H]3CC[C@]12C`, the IC50 (HCT-116) is reported as 40 µM, the inhibition at 10 µM (Influenza A virus) is reported as 57% and the inhibition at 10 µM (RAW264.7) is reported as 43%. The IC50 (PANC-1) was 33 µM, the IC50 (HepG2 [2]) was 37 µM and the Activity (HepG2 [1]) was 51%. It also gave an IC50 (PC-9) of 49 µM and an IC50 (BGC-823) of 40 µM.
`C=C(CC/C=C(\C)CCC=C(C)C)[C@H]1CC[C@H]2[C@@]1(C)CC[C@H]1C(C)(C)[C@@H](O)CC[C@]21C` was tested, and the IC50 (HCT-116) was > 50 µM, the inhibition at 10 µM (Influenza A virus) was 45% and the inhibition at 10 µM (RAW264.7) was 40%. For the same compound, the IC50 (PANC-1) was > 50 µM, the IC50 (HepG2 [2]) was > 50 µM and the IC50 (PC-9) was > 50 µM. For the same compound, the IC50 (BGC-823) was > 50 µM.
`CC(=O)O[C@H]1C(=O)[C@@]2(C)[C@H]([C@H](OC(=O)c3ccccc3)[C@]3(O)C[C@H](OC(=O)[C@H](O)[C@@H](NC(=O)c4ccccc4)c4ccccc4)C(C)=C1C3(C)C)[C@]1(OC(C)=O)CO[C@@H]1C[C@@H]2O` [PACLITAXEL] showed an IC50 (PANC-1) of 0.004 µM and an IC50 (HepG2 [2]) of 0.064 µM.
In the case of `CC(C)=CCC/C(C)=C/CC[C@@](C)(O)[C@@H]1CC[C@H]2[C@@]1(C)CC[C@H]1C(C)(C)[C@@H](O)CC[C@]21C`, the IC50 (HCT-116) is reported as 41 µM, the inhibition at 10 µM (Influenza A virus) is reported as 76% and the inhibition at 10 µM (RAW264.7) is reported as 42%. For the same compound, the IC50 (PANC-1) was 29 µM, the IC50 (HepG2 [2]) was 31 µM and the IC50 (PC-9) was 44 µM. For the same compound, the IC50 (BGC-823) was 42 µM.
With `CC(C)=CC/C=C(/C)[C@H]1CC[C@]2(C)[C@@H]1CC[C@@H]1[C@@]3(C)CC[C@H](O)C(C)(C)[C@@H]3CC[C@]12C` the IC50 (HCT-116) was > 50 µM, the inhibition at 10 µM (Influenza A virus) was 88% and the inhibition at 10 µM (RAW264.7) was 50%. For the same compound, the IC50 (PANC-1) was > 50 µM, the IC50 (HepG2 [2]) was > 50 µM and the Activity (HepG2 [1]) was 52%. The IC50 (PC-9) was > 50 µM and the IC50 (BGC-823) was > 50 µM.
